Laboratory results reported in US20040127571A1 (UNIVERSITY OF SOUTH FLORIDA, priority 2002, published 2004).

How the values were obtained:
[1] = system: Lama-84 cells; assay: Apoptosis of Lama-84 cells after SAHA exposure; assay type: cell-based; details: 1.0 to 10.0 uM SAHA for 48 hours; FIG. 2A
[2] = system: p27 in LAMA cells; assay: p27 expression in LAMA cells after SAHA (FIG. 2B); assay type: cell-based
From the text: (§1) Moreover, exposure to SAHA increases the acetylation of histones (H3) and the expression of p21 (FIG. 2B). […] SAHA downregulates the levels and auto-phosphorylation, the addition of a phosphate group, of Bcr-Abl (FIG. 2C).

[3] = system: histones (H3), p21; assay: Histone acetylation and p21 expression after SAHA (FIG. 2B); assay type: cell-based
From the text: as §1

[4] = system: p27 in K562 cells; assay: p27 expression in K562 cells after SAHA (FIG. 2B); assay type: cell-based
From the text: as §1

[5] = system: imatinib refractory (resistant) cells; assay: Apoptosis of imatinib refractory cells after SAHA; assay type: cell-based
[6] = system: K562 cells; assay: Apoptosis of K562 cells after SAHA exposure; assay type: cell-based; details: 1.0 to 10.0 uM SAHA for 48 hours; FIG. 2A
[7] = system: Bcr-Abl; assay: Bcr-Abl levels and auto-phosphorylation after SAHA (FIG. 2C); assay type: cell-based
From the text: as §1

[8] = system: K562; assay: Cell cycle distribution of K562 cells after SAHA; assay type: cell-based; details: 1.0 to 5.0 uM SAHA for 48 hours; dose-dependent
Protocol: Treatment with 1.0 to 5.0 uM SAHA for 48 hours increased the percentage of K562 in the G1 (the gap in the cell division cycle between mitosis and synthesis) phase of the cell cycle in a dose-dependent manner.

[9] = system: p27 (gene); details: previously shown; cited from earlier work

For `O=C(CCCCCCC(=O)Nc1ccccc1)NO` [SAHA, Suberoylanilide Hydromaxic Acid], the “apoptosis of Lama-84 cells” value [1] was “dose-dependent increase”, the p27 expression [2] was “induced p27 expression” and the “acetylation of histones (H3)” value [3] was “increases”. The “expression of p21” value [3] was “increases”, the p27 expression [4] was “induced p27 expression” and the “apoptosis in imatinib refractory (resistant) cells” value [5] was “induces apoptosis”. For the same compound, the “apoptosis of K562 cells” value [6] was “dose-dependent increase”, the “auto-phosphorylation of Bcr-Abl” value [7] was “downregulates” and the “levels of Bcr-Abl” value [7] was “downregulates”. The “percentage of K562 in the G1 phase of the cell cycle” value [8] was “increased” and the “acetylation of histones of the chromatin associated with p27 (gene) / its transcription” value [9] was “not to induce acetylation”.
